Data as given in ChEMBL document CHEMBL4033705, “Screening for bioactive natural products from a 67-compound library of Glycyrrhiza inflata” (Bioorg Med Chem, 2017).

Experiments:
HepG2 = test: Growth inhibition of human HepG2 cells at 10 uM after 24 hrs by MTS assay relative to control; type: functional; conditions: HepG2, 24 h, read-out: GI
RAW264.7 = test: Antiinflammatory activity in mouse RAW264.7 cells assessed as inhibition of LPS-induced NO production at 10 uM after 24 hrs by Griess reagent based assay relative to control; type: functional; conditions: RAW264.7, 24 h
Homo sapiens = organism: Homo sapiens; test: Inhibition of LPS-induced NF-kappaB transcription (unknown origin) expressed in human SW480 cells at 10 uM by luciferase reporter gene assay; type: cell-based
MCF7 [1] = test: Growth inhibition of human MCF7 cells at 10 uM after 24 hrs by MTS assay relative to control; type: functional; conditions: MCF7, 24 h, read-out: GI
SW480 [2] = test: Growth inhibition of human SW480 cells at 10 uM after 24 hrs by MTS assay relative to control; type: functional; conditions: SW480, 24 h, read-out: GI
[3] = Growth inhibition of human HEK293T cells at 10 uM after 24 hrs by MTS assay relative to control; type: cell-based, HEK-293T; conditions: HEK293T cells, read-out: GI
[4] = Growth inhibition of human LO2 cells at 10 uM after 24 hrs by MTS assay relative to control; type: cell-based, L02; conditions: LO2 cells, read-out: GI
SW480 [5] = test: Cytotoxicity against human SW480 cells assessed as reduction in cell viability after 24 hrs by MTS assay; type: functional, cell-based; conditions: SW480, 24 h
[6] = target: Mushroom tyrosinase (Agaricus bisporus) (UniProt O42713+Q00024+C7FF04+C7FF05); test: Inhibition of mushroom tyrosinase at 10 uM using L-tyrosine as substrate incubated for 15 mins followed by substrate addition relative to control
MCF7 [7] = test: Cytotoxicity against human MCF7 cells assessed as reduction in cell viability after 24 hrs by MTS assay; type: functional, cell-based; conditions: MCF7, 24 h
[8] = target: T1, Tyrosine-protein phosphatase non-receptor type 1 (Homo sapiens) (UniProt P18031); test: Inhibition of recombinant human PTP1B using p-nitrophenyl phosphate as substrate at 10 uM after 30 mins relative to control
T1 sequence (whole entry): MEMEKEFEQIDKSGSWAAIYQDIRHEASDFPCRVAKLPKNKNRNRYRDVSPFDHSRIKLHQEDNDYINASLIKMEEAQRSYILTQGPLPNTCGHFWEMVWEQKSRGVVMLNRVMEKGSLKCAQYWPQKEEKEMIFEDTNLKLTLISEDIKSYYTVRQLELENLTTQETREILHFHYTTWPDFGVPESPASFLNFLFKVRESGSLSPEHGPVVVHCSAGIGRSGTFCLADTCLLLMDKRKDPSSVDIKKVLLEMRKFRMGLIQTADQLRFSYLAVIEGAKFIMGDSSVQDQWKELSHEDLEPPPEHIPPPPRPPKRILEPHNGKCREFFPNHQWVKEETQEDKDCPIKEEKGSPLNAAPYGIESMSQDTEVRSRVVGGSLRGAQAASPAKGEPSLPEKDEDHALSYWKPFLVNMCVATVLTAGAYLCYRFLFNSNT

[9] = target: T2, Tyrosine-protein phosphatase non-receptor type 1 (Homo sapiens, UniProt P18031); test: Inhibition of recombinant human PTP1B using p-nitrophenyl phosphate as substrate after 30 mins
T2 sequence (P18031 whole entry): T1 sequence (whole entry)

Compound	inhibition of growth at 10 µM (HepG2)	inhibition at 10 µM (RAW264.7)	inhibition (Homo sapiens)	inhibition of growth at 10 µM (MCF7 [1])	inhibition of growth at 10 µM (SW480 [2])	inhibition at 24 h, 10 µM [3]	inhibition at 24 h, 10 µM [4]	IC50 (SW480 [5])	inhibition [6]	IC50 (MCF7 [7])	inhibition [8]	IC50 [9]
CC(C)=CCc1c(O)c(CC=C(C)C)c2occ(-c3ccc(O)cc3)c(=O)c2c1O	30%	22%	26%	73%	81%	49%	12%	8.08 µM	7%	8.58 µM	51%	
CC(C)=CCc1cc(/C=C/C(=O)c2ccc(O)cc2O)ccc1O [LICOAGROCHALCONE A]	2%	16%	25%	2%	12%	2%	3%		16%		98%	0.97 µM
CC(C)=CCc1c(O)ccc2c1O[C@H](c1ccc3c(c1)C=CC(C)(C)O3)CC2=O	14%	24%	20%	75%	72%	25%	2%	9.84 µM	15%	12.9 µM	50%	
CC(C)=CCc1c(O)ccc([C@H]2COc3cc(O)c(CC=C(C)C)c(O)c3C2=O)c1O	25%	14%	37%	44%	2%	4%	0%		7%		98%	0.84 µM
CC(C)=CCc1cc([C@@H]2CC(=O)c3c(cc(O)c(CC=C(C)C)c3O)O2)ccc1O [MACARANGAFLAVANONE B]	10%	5%	24%	36%	87%				5%		90%	1.03 µM
CC1(C)C=Cc2c(cc3occ(-c4ccc(O)cc4)c(=O)c3c2O)O1 [ALPINUMISOFLAVONE]	40%	19%	41%	3%	13%	15%	5%		2%		79%	
O=C(/C=C/c1ccc(O)cc1)c1ccc(O)cc1O [ISOLIQUIRITIGENIN]	0%	14%	6%	0%	16%				12%		48%	
CC(C)=CCc1cc2c(=O)cc(-c3ccc(O)cc3)oc2cc1O [LICOFLAVANONE A]	5%	11%	7%	0%	30%				17%		79%	
COc1c(/C=C/C(=O)c2ccc(O)cc2)ccc(O)c1CC=C(C)C	22%	1%	9%	26%	25%				5%		20%	
CC1(C)C=Cc2c(O)ccc([C@@H]3COc4cc(O)cc(O)c4C3=O)c2O1	6%	2%	24%	13%	8%				9%		1%	
CC(C)=CCc1c(O)c(CC=C(C)C)c2oc(-c3ccc(O)cc3)cc(=O)c2c1O	11%	9%	34%	68%	61%	20%	46%		0%	12.2 µM	47%	
CC1(C)[C@@H](OC=O)CC[C@]2(C)[C@H]3C(=O)C=C4[C@@H]5C[C@@](C)(C(=O)O)CC[C@]5(C)CC[C@@]4(C)[C@]3(C)CC[C@@H]12	13%	2%	0%	17%	3%				0%		3%	
CC(C)=CCc1c(O)cc2occ(-c3ccc4c(c3)C=CC(C)(C)O4)c(=O)c2c1O [ISOCHANDALON]	7%	0%	3%	73%	58 to 81%				3%		94%	
CC1(C)C=Cc2cc(-c3coc4cc(O)cc(O)c4c3=O)ccc2O1	11%	10%	27%	2 to 23%	13 to 70%				14%		27%	
COc1ccc2c(c1)OC[C@H]1c3ccc(O)cc3O[C@@H]21	5%	3%	0%	20%	17%				31%		2%	
CC(C)=CCc1c(O)ccc(-c2coc3cc(O)cc(O)c3c2=O)c1O	5%	20%	5%	18%	26%				5%		7%	
CC(C)=CCc1c(O)ccc(-c2coc3cc(O)c(CC=C(C)C)c(O)c3c2=O)c1O	0%	0%	15%	4%	46%				2%		78%	
CC(C)=CCc1cc(-c2coc3c(CC=C(C)C)c(O)cc(O)c3c2=O)cc(O)c1O	0%	0%	14%	3%	55%				2%		92%	4.5 µM
CC(C)=CCc1cc([C@@H]2CC(=O)c3ccc(O)cc3O2)cc2c1OC(C)(C)C=C2 [ABYSSINONES III]	9%	17%	28%	0%	26%				6%		43%	
CC(C)=CCc1c(O)cc(O)c2c(=O)c(-c3ccc(O)cc3O)coc12	5%	9%	8%	31%	13%				17%		34%	
CC(C)=CCc1cc([C@@H]2CC(=O)c3ccc(O)cc3O2)ccc1O [ABYSSINONE II]	4%	8%	0%	25%	22%				4%		5%	
CC(C)=CCc1c(O)ccc(C(=O)/C=C/c2ccc(O)cc2)c1O [ISOBAVACHALCONE]	39%	0%	0%	16%	20%				14%		73%	
